These results are taken from US7585859B2, “PDE4B inhibitors and uses therefor” (Plexxikon, Inc., priority 2004, dated 2009).

SMILES strings stand for the structures. Bounds are passed on as bounds.

Type in all cases: biochemical
Test [1] addresses T1, PDE4B: The catalytic domain of human PDE4B from S152-S528 (Homo sapiens, UniProt Q07343).
T1 construct: His6 (N); thrombin cleavage site (N); made in house; host or cells: E. coli
Kind of test: PDE4 IC50 determination by Scintillation Proximity Assay, PDE4B. Particulars: Table 1B, Formula I compounds; read-out: IC50 PDE4B. Put shortly: (§1)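 Hydrolysis of [^3H]cAMP measured by SPA with yttrium silicate beads, which bind the [^3H]AMP product strongly and cAMP weakly. Enzyme at 80 ng/ml for PDE4B, 4 ng/ml for PDE4D; 30 min at 30°.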

For test [2], the target named is T2, full-length human PDE4D5 isozyme (Homo sapiens, UniProt Q08499).
T2 construct: The full-length human PDE4D5 isozyme; His6 (N); TEV cleavage site (N); made in house; host or cells: baculovirus infected insect cells (unpurified lysate)
Kind of test: PDE4 IC50 determination by Scintillation Proximity Assay, PDE4D5. Particulars: Table 1B, Formula I compounds; read-out: IC50 PDE4D5. Put shortly: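 Unpurified His6-tagged full-length human PDE4D5 from baculovirus-infected insect cell lysate, 0.083 μl glycerol stock/ml, hydrolysed [3H]cAMP in Tris pH 7.5/MgCl/EGTA buffer, 30 min at 30°. ZnSO4/SPA beads stop; [3H]AMP counted. Controls: DMSO and roflumilast; 11-point duplicate curves, nonlinear-regression IC50.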

The target in test [3] is T3, full-length human PDE4B2 isozyme (Homo sapiens, UniProt Q07343).
T3 construct: The full-length human PDE4B2 isozyme; His6 (N); TEV cleavage site (N); made in house; host or cells: baculovirus infected insect cells (unpurified lysate)
The test is described as follows: PDE4 IC50 determination by Scintillation Proximity Assay, PDE4B2. Particulars: Table 1B, Formula I compounds; read-out: IC50 PDE4B2. Put shortly:
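Unpurified His6-TEV-tagged full-length human PDE4B2 from baculovirus-infected insect cell lysate (2.5 μl of 50% glycerol stock/ml) hydrolysed [3H]cAMP in 50 mM Tris pH 7.5, 8.3 mM MgCl, 1.7 mM EGTA, 0.01% BSA for 30 min at 30°. Stopped with SPA beads in 18 mM ZnSO4; [3H]AMP scintillation counted, IC50 by non-linear regression.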

The target in another test is T4, PDE4D (Homo sapiens, UniProt Q08499).
T4 construct: PDE4D: The catalytic domain of human PDE4B from S3 16-V692; His6 (N); thrombin cleavage site (N); made in house; host or cells: E. coli
The test is described as follows: PDE4 IC50 determination by Scintillation Proximity Assay, PDE4D. Particulars: Table 1B, Formula I compounds; read-out: IC50 PDE4D. Put shortly:
as §1

T2 sequence (Q08499 1-745 isoform Q08499-6): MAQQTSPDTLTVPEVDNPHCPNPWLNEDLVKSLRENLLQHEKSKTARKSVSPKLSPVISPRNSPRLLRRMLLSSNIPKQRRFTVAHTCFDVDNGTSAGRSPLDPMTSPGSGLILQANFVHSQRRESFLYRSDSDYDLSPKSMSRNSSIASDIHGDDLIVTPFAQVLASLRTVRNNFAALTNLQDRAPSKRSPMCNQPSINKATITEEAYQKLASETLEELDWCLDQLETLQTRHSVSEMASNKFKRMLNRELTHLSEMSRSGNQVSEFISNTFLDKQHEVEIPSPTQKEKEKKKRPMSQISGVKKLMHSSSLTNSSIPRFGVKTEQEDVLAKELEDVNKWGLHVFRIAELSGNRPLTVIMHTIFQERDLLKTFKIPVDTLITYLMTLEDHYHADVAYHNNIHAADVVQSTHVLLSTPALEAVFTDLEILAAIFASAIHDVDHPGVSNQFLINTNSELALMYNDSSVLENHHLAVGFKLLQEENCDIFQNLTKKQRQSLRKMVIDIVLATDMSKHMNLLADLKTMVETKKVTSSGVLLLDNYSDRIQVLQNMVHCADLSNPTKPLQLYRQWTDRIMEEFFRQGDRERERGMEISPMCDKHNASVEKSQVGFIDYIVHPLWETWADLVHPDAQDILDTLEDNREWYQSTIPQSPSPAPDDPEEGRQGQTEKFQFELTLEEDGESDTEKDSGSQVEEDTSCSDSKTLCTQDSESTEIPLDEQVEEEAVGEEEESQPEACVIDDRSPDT
T3 sequence (Q07343 1-564 isoform Q07343-2): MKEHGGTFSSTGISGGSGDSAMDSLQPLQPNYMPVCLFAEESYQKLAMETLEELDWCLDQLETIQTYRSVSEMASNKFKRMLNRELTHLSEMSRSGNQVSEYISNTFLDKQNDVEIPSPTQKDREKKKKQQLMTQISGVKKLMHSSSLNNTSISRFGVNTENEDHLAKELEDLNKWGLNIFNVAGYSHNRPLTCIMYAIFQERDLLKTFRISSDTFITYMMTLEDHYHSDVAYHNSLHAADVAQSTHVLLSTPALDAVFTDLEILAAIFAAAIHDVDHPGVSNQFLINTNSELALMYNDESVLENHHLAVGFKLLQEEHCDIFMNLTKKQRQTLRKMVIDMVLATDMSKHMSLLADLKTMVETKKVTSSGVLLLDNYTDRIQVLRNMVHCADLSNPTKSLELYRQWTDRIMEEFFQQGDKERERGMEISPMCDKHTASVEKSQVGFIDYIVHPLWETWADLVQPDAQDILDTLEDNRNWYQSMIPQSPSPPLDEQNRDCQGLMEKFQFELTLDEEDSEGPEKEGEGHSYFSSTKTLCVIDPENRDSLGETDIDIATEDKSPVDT
T1 sequence (Q07343 with tags, fused parts or gaps): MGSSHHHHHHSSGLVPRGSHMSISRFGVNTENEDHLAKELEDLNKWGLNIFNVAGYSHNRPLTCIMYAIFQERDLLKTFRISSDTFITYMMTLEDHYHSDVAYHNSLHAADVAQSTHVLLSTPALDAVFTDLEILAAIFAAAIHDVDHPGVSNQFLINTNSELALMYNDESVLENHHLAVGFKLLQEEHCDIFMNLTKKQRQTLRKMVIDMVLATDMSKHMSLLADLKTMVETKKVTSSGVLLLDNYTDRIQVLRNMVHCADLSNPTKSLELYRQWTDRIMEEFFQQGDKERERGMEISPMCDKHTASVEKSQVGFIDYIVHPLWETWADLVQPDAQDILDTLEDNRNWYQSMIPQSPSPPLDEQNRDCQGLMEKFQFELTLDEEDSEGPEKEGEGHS
T4 sequence (Q08499 380-756): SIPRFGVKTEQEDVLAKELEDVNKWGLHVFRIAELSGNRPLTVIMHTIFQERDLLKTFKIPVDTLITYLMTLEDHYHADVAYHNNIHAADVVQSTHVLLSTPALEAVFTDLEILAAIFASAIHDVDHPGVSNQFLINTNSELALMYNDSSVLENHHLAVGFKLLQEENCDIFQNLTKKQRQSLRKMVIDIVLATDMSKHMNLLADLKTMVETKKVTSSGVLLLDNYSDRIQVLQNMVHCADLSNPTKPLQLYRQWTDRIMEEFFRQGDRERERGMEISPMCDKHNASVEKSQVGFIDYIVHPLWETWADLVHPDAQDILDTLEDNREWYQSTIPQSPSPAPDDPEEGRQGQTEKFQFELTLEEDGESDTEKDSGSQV

On to `N#Cc1c(NC2CCCC2)sc(C(=O)c2cc(-c3ccc(Cl)c(Cl)c3)no2)c1N` [Compound 1-172, 4-Amino-2-cyclopentylamino-5-[3-(3-4-dichloro-phenyl)-isoxazole-5-carbonyl]-thiophene-3-carbonitrile], for which the 50% inhibitory concentration (IC50) in test [1] is under 10 µM; in test [2] it was over 10 µM; in test [3] it was under 10 µM; on PDE4D, over 10 µM.
As to `CSc1cccc(Nc2sc(C(=O)c3ccccc3Cl)c(N)c2C#N)c1` [Compound 1-180, 4-Amino-5-(2-chloro-benzoyl)-2-(3-methylsulfanyl-phenylamino)-thiophene-3-carbonitrile], the IC50 (in test [1]; in test [2]; in test [3]; on PDE4D) was under 10 µM each time.
With `N#Cc1c(Nc2ccc(Oc3ccccc3)cc2)sc(C(=O)c2cc(-c3ccccc3)no2)c1N` [Compound 1-187, 4-Amino-2-(4-phenoxy-phenylamino)-5-(3-phenyl-isoxazole-5-carbonyl)-thiophene-3-carbonitrile], the IC50 (in test [1]; in test [2]; in test [3]; on PDE4D) was over 10 µM in each case.
As to `CCNC(=O)c1cc(C(=O)c2sc(NC3CCCC3)c(C#N)c2N)on1` [Compound 1-198, 5-(3-Amino-4-cyano-5-cyclopentylamino-thiophene-2-carbonyl)-isoxazole-3-carboxylic acid ethylamide], the concentration for half-maximal inhibition (IC50) in test [1] is under 10 µM; in test [2], over 10 µM; in test [3], over 10 µM; at PDE4D, under 10 µM.
Turning to `CCOC(=O)c1c(NC2CCCC2)sc(C(=O)c2cc(-c3ccccc3)no2)c1N` [Compound 1-200, 4-Amino-2-cyclopentylamino-5-(3-phenyl-isoxazole-5-carbonyl)-thiophene-3-carboxylic acid ethyl ester], the concentration for half-maximal inhibition (IC50) is over 10 µM in test [1], over 10 µM in test [2], over 10 µM in test [3] and under 10 µM on PDE4D.
Turning to `N#Cc1c(NC2CCCCC2)sc(C(=O)c2cc(-c3ccccc3)no2)c1N` [Compound 1-204, 4-Amino-2-cyclohexylamino-5-(3-phenyl-isoxazole-5-carbonyl)-thiophene-3-carbonitrile], the IC50 (in test [1]; in test [2]; in test [3]; on PDE4D) was over 10 µM each time.
For the molecule `N#Cc1c(NCC2CC2)sc(C(=O)c2cc(-c3ccccc3)no2)c1N` [Compound 1-206, 4-Amino-2-(cyclopropylmethyl-amino)-5-(3-phenyl-isoxazole-5-carbonyl)-thiophene-3-carbonitrile], the IC50 (in test [1]; in test [2]; in test [3]; on PDE4D) was over 10 µM in each case.
Regarding `N#Cc1c(Nc2ccco2)sc(C(=O)c2cc(-c3ccccc3)no2)c1N` [Compound 1-208, 4-Amino-2-(furan-2-ylamino)-5-(3-phenyl-isoxazole-5-carbonyl)-thiophene-3-carbonitrile], the concentration for half-maximal inhibition (IC50) in test [1] is over 10 µM; in test [2], over 10 µM; in test [3], under 10 µM; on PDE4D it was over 10 µM.
Take `N#Cc1c(NC2CCCO2)sc(C(=O)c2cc(-c3ccccc3)no2)c1N` (centres unmarked) [Compound 1-210, 4-Amino-5-(3-phenyl-isoxazole-5-carbonyl)-2-(tetrahydro-furan-2-ylamino)-thiophene-3-carbonitrile]: the half-maximal inhibitory concentration (IC50) (in test [1]; in test [2]; in test [3]; on PDE4D) was under 10 µM in each case.
In the case of `N#Cc1c(NC2CCCC2)sc(C(=O)c2cc(-c3c(Cl)cccc3Cl)no2)c1N` [Compound 1-211, 4-Amino-2-cyclopentylamino-5-[3-(2,6-dichloro-phenyl)-isoxazole-5-carbonyl]-thiophene-3-carbonitrile], the IC50 (in test [1]; in test [2]; in test [3]; at PDE4D) was under 10 µM in each case.
`N#Cc1c(NCCN2CCOCC2)sc(C(=O)c2cc(-c3ccccc3)no2)c1N` [Compound 1-213, 4-Amino-2-(2-morpholin-4-yl-ethylamino)-5-(3-phenyl-isoxazole-5-carbonyl)-thiophene-3-carbonitrile]: the IC50 in test [1] was under 10 µM; in test [2], over 10 µM; in test [3] it was over 10 µM; on PDE4D, under 10 µM.
Turning to `N#Cc1c(NCc2cccc(Cl)c2)sc(C(=O)c2cc(-c3ccccc3)no2)c1N` [Compound 1-214, 4-Amino-2-(3-chloro-benzylamino)-5-(3-phenyl-isoxazole-5-carbonyl)-thiophene-3-carbonitrile], the concentration for half-maximal inhibition (IC50) (in test [1]; in test [2]; in test [3]; at PDE4D) was over 10 µM each time.
In the case of `N#Cc1c(NC2CCCC2)sc(C(=O)c2nc3ccccc3s2)c1N` [Compound 1-215, 4-Amino-5-(benzothiazole-2-carbonyl)-2-cyclopentylamino-thiophene-3-carbonitrile], the half-maximal inhibitory concentration (IC50) (in test [1]; in test [2]; in test [3]; at PDE4D) was under 10 µM in each case.
Regarding `COc1cccc(CNc2sc(C(=O)c3cc(-c4ccccc4)no3)c(N)c2C#N)c1` [Compound 1-216], the half-maximal inhibitory concentration (IC50) (in test [1]; in test [2]; in test [3]; at PDE4D) was over 10 µM throughout.
Consider `CC(C)(C)Nc1sc(C(=O)c2cc(-c3ccccc3)no2)c(N)c1C#N` [Compound 1-224, 4-Amino-2-tert-butylamino-5-(3-phenyl-isoxazole-5-carbonyl)-thiophene-3-carbonitrile], for which the IC50 (in test [1]; in test [2]; in test [3]; at PDE4D) was under 10 µM throughout.
Turning to `CC(C)CNc1sc(C(=O)c2cc(-c3ccc(Cl)c(Cl)c3)no2)c(N)c1C#N` [Compound 1-226, 4-Amino-5-[3-(3,4-dichloro-phenyl)-isoxazole-5-carbonyl]-2-isobutylamino-thiophene-3-carbonitrile], the IC50 (in test [1]; in test [2]; in test [3]; on PDE4D) was over 10 µM in each case.
Regarding `N#Cc1c(NC2CCCC2)sc(C(=O)c2cc(-c3ccc(Cl)cc3Cl)no2)c1N` [Compound 1-227, 4-Amino-2-cyclopentylamino-5-[3-(2,4-dichloro-phenyl)-isoxazole-5-carbonyl]-thiophene-3-carbonitrile], the IC50 in test [1] is under 10 µM; in test [2] it was over 10 µM; in test [3], over 10 µM; on PDE4D, under 10 µM.
Regarding `CCC(CC)Nc1sc(C(=O)c2cc(-c3ccccc3)no2)c(N)c1C#N` [Compound 1-228, 4-Amino-2-(1-ethyl-propylamino)-5-(3-phenyl-isoxazole-5-carbonyl)-thiophene-3-carbonitrile], the half-inhibitory concentration (IC50) was under 10 µM in test [1], over 10 µM in test [2], over 10 µM in test [3] and under 10 µM at PDE4D.
Regarding `CC(C)CNc1sc(C(=O)c2ccc(Oc3ccccc3)cc2)c(N)c1C#N` [Compound 1-233, 4-Amino-2-isobutylamino-5-(4-phenoxy-benzoyl)-thiophene-3-carbonitrile], the 50% inhibitory concentration (IC50) (in test [1]; in test [2]; in test [3]; on PDE4D) was under 10 µM in each case.
Regarding `CC(C)C(C)Nc1sc(C(=O)c2cc(-c3ccc(Cl)c(Cl)c3)no2)c(N)c1C(N)=O` (centres unmarked) [Compound 1-248, 4-Amino-5-[3-(3,4-dichloro-phenyl)-isoxazole-5-carbonyl]-2-(1,2-dimethyl-propylamino)-thiophene-3-carboxylic acid amide], the IC50 in test [1] is under 10 µM; in test [2], over 10 µM; in test [3] it was under 10 µM; at PDE4D, under 10 µM.
